Test results as given in article PMC12073189, “Synthesis and Evaluation of a Novel Zuranolone Analog with High GABAA Receptor PAM Activity and Excellent Pharmacokinetic Profiles” (Molecules, 2025).

Legend:
α1β2γ2 GABAA receptor = molecular target: T1, α1β2γ2 GABAA receptor (Homo sapiens, UniProt P14867+P47870); test: Whole-cell electrophysiology of GABA-evoked currents, LTK cells; format: cell-based; settings: for activity as % of that of Zuranolone: GABAA receptor subtypes; for EC50 / Emax: LTK cells, n = 3; for EC50: 1 μmol/L GABA (EC20), read-out: α1β2γ2 EC50; for Emax: current induced by 1 μmol/L GABA = 100%
T1 construct: expressed in transfected cells
T1 sequence (P14867 28-456): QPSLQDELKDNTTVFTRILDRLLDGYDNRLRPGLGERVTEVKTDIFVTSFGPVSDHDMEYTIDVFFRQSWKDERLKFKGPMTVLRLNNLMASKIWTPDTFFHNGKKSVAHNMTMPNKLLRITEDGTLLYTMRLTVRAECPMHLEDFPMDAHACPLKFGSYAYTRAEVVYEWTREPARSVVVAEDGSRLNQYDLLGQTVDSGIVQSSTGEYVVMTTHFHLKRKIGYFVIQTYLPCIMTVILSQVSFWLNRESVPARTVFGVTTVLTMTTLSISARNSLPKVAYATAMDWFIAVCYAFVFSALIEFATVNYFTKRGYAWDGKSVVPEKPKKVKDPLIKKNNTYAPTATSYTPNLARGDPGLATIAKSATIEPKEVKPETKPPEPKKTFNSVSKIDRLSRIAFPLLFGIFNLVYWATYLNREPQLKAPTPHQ
T1 sequence (P47870 25-512 limits assumed): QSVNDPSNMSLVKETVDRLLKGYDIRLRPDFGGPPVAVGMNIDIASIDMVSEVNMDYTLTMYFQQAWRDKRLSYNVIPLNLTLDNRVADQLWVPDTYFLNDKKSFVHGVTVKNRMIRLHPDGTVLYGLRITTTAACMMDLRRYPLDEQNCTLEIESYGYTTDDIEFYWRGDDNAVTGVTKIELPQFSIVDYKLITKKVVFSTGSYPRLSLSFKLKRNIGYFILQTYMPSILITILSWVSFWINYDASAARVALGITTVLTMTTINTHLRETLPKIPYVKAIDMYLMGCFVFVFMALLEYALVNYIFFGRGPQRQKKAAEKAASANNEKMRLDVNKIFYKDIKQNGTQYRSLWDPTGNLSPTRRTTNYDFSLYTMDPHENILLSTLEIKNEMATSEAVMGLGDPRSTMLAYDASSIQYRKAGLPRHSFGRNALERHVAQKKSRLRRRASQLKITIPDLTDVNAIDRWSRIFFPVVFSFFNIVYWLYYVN
T1 sequence (P18507 40-475 partner): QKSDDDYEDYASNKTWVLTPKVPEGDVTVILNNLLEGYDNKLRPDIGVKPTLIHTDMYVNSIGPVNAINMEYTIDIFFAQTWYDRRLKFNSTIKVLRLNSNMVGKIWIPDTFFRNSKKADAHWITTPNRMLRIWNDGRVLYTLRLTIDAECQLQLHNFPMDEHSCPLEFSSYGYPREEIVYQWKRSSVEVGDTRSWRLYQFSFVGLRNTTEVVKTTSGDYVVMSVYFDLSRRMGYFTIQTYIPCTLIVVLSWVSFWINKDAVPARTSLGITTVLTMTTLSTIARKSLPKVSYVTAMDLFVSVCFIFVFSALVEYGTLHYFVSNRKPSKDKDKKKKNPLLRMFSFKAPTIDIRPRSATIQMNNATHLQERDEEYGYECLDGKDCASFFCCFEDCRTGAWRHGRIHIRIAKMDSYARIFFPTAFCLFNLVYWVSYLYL
Procedure: (§1) The α1β2γ2 and α4β3δ GABAA receptor subtypes, representing synaptic and extrasynaptic subunit compositions in neurons, are widely utilized for screening new NAS drugs. In this study, a preliminary SAR study was conducted on a series of Zuranolone analogs using the LogP values predicted by ADMETlab3.0 software, recombinant human GABAA receptor cell lines, and in vitro liver microsome stability assays. The results are summarized in Table 1, Table 2, and Table 3, respectively.
(§2) The effects of Zuranolone and synthetic analogs on GABA-evoked currents were assessed in LTK cells stably expressing α1β2γ2 GABAA receptor subunits (n = 3) or CHO cells transiently expressing α4β3δ receptors (n = 3). Whole-cell mode recordings were conducted using the HEKA EPC-10 amplifier and analyzed with PatchMaster software (version 2x90, HEKA Elektronik, Lambrecht, Germany). High-throughput whole-cell recordings were performed using the Q-Patch method from Sophion. Test substances were dissolved in DMSO (dimethyl sulfoxide) to prepare 10 mmol/L stock solutions, then diluted with perfusion bath solution to concentrations ranging from 0.01 to 10 μmol/L. In this experiment, the effects of Zuranolone and its synthetic analogs on GABA-induced currents were examined in the presence of a submaximal agonist concentration at 1 μmol/L GABA (EC20). Cells were pre-incubated with increasing doses of test substances for 30 s, followed by 2 s of GABA stimulation, and currents were recorded. The maximum efficacy (Emax) of the GABAA receptor is expressed with the current induced by 1 μmol/L GABA taken as 100%, and the percentage after treatment with the test compound is calculated. The EC50 values are determined by fitting the three concentration–response curves recorded from three cells.

[1] = Liver microsome metabolic stability (HLM); format: in vitro ADME, human; settings: pH 7.4; human liver microsomes; read-out: HLM T1/2
Procedure: (§3) We quantified S1–S15 and Zuranolone using a UPLC-MS/MS (Agilent 1290 Infinity II UHPLC (Agilent Technologies, Santa Clara, CA, USA) coupled with a QTRAP 5500 MS/MS (ESI source) (SCIEX, Redwood City, CA, USA for MS/MS). The method assessed the content level of S9 and Zuranolone in microsome metabolism and in rat brain tissue and plasma. An ACQUITY UPLC Peptide BEH C18 column (Waters; 50 × 2.1 mm, 1.7 μm; 60 °C; Waters Corporation, Milford, MA, USA) was used with a mobile phase of 0.02% propionic acid in water (A) and acetonitrile (B). The gradient elution of the mobile phase B is carried out as follows: it is 10% from 0 to 0.5 min, 90% from 0.8 to 2.5 min, and 10% from 2.8 to 3.5 min, with a flow rate of 0.40 mL/min. Quantitative analysis was performed on a QTRAP 5500 MS (SCIEX, Redwood City, CA, USA) in positive ionization mode with MRM (multiple reaction monitoring), using progesterone-d9 as the internal standard. MRM transitions and parameters were optimized for each analyte, with collision energies of 25 V (S1–S15), 23 V (Zuranolone), and 30 V (IS), and declustering potentials of 80 V (S1–S15), 90 V (Zuranolone), and 180 V (IS). Other conditions were as follows: curtain gas 10 psi, collision gas ‘medium’, ion spray voltage 5500 V, temperature 500 °C, and ionization source gases 1 and 2 at 50 psi.
(§4) To evaluate the metabolic stability of compounds S1–S15 and Zuranolone in RLM and HLM, we designed the following in vitro liver microsome metabolism assay protocol. In a 1.5 mL centrifuge tube, sequentially add 173 μL of PBS (0.1 M, pH 7.4), 5 μL of liver microsomes (20 mg/mL), and 2 μL of the test compound (100 μmol/L). After thorough mixing, pre-incubate at 37 °C for 10 min. Subsequently, add 20 μL of NADPH to initiate the metabolism, with a parallel control without NADPH, to validate the background signal. Samples were collected at 0, 5, 10, 20, 30, and 60 min post-reaction initiation. At each designated time point, we quenched the reaction with ice-cold acetonitrile (600 μL). After centrifuging the mixture, we analyzed the supernatant using UPLC-MS/MS. For data analysis, the compound concentration at 0 min was set as 100%, with concentrations at subsequent time points expressed as residual percentages relative to the initial value, and the in vitro half-life (T1/2) and intrinsic clearance (CLint) were calculated.

[2] = Liver microsome metabolic stability (RLM); format: in vitro ADME, rat; settings: pH 7.4; rat liver microsomes; read-out: RLM T1/2
Procedure: as §3, §4

α4β3δ GABAA receptor = molecular target: T2, α4β3δ GABAA receptor (Homo sapiens, UniProt P28472+P48169); test: Whole-cell electrophysiology of GABA-evoked currents, CHO cells; format: cell-based; settings: for EC50 / Emax: CHO cells, n = 3; for EC50: 1 μmol/L GABA (EC20), read-out: α4β3δ EC50; for Emax: current induced by 1 μmol/L GABA = 100%
T2 construct: expressed in transfected cells; host or cells: CHO cells (transient expression)
T2 sequence (P48169 36-554): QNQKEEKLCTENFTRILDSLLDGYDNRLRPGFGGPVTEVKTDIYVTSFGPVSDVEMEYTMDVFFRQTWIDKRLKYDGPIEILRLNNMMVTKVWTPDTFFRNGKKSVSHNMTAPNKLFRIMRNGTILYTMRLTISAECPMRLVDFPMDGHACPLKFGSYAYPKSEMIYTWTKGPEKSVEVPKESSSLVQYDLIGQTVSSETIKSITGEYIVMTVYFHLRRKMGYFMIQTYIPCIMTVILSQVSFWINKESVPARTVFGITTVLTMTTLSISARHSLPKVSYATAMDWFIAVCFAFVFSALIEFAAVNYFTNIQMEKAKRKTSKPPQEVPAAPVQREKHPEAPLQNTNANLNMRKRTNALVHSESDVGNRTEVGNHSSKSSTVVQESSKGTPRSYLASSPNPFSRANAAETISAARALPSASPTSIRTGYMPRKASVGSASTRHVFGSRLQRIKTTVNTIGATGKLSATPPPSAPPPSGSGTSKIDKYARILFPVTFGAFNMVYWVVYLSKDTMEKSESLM
T2 sequence (P28472 26-473): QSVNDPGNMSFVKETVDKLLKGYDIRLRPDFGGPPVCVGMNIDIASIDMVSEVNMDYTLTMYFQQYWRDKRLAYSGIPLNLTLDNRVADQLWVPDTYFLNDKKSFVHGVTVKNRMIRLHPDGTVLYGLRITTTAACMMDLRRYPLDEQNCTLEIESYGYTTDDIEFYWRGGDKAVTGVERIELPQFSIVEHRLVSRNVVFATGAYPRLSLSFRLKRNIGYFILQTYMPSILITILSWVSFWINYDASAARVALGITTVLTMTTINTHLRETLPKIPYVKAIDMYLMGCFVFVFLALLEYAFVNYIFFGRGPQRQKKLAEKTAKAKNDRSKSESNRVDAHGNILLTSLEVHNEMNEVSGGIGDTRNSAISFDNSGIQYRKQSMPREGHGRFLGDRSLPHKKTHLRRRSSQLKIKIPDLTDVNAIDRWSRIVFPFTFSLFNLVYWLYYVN
T2 sequence (O14764 25-452 partner): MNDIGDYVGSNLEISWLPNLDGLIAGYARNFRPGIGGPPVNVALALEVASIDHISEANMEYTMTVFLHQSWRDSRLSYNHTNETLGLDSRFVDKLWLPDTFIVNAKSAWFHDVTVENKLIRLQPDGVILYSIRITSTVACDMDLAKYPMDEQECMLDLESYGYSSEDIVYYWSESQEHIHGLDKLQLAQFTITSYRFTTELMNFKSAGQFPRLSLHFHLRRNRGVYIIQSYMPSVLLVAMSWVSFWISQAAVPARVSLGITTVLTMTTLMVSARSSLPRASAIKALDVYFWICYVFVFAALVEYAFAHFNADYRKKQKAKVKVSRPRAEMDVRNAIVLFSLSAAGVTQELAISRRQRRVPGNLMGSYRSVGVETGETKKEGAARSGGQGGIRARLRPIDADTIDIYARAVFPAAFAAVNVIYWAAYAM
Procedure: as §1, §2

SMILES | activity as % of that of Zuranolone (α1β2γ2 GABAA receptor; not separated) | EC50 (α1β2γ2 GABAA receptor) [nM] | Emax (α1β2γ2 GABAA receptor) [%] | half-life at 1 μmol/L [1] [min] | half-life at 1 μmol/L [2] [min] | EC50 (α4β3δ GABAA receptor) [nM] | Emax (α4β3δ GABAA receptor) [%] | potency as % of that of Zuranolone (α1β2γ2 GABAA receptor; synaptic GABAA receptors) [%] | potency as % of that of Zuranolone (α4β3δ GABAA receptor; extrasynaptic GABAA receptors) [%] | potency higher than Zuranolone (α1β2γ2 GABAA receptor; synaptic and extrasynaptic GABAA receptor subtypes, not separated) | half-life at 1 µM [1] [min] | half-life at 1 µM [2] [min]
C[C@@]1(O)CC[C@H]2[C@H](CC[C@@H]3[C@@H]2CC[C@]2(C)[C@@H](C(=O)Cn4ncn(-c5ccc(F)cc5)c4=O)CC[C@@H]32)C1 [S10] | less than 50% | 12.4 ± 5 | 294 ± 52 | 33 | 10 | 148 ± 25 | 428 ± 45 |  |  |  |  | 
C[C@@]1(O)CC[C@H]2[C@H](CC[C@@H]3[C@@H]2CC[C@]2(C)[C@@H](C(=O)Cn4cnn(-c5ccnc(C(F)F)c5)c4=O)CC[C@@H]32)C1 [S8] |  | 83 ± 24 | 600 ± 69 | 23 | 29 | 49 ± 15 | 432 ± 55 | 140 | 150 |  |  | 
C[C@@]1(O)CC[C@H]2[C@H](CC[C@@H]3[C@@H]2CC[C@]2(C)[C@@H](C(=O)Cn4ncn(CC5CC5)c4=O)CC[C@@H]32)C1 [S2] |  | 58 ± 10 | 320 ± 25 |  |  | 140 ± 10 | 450 ± 35 |  |  |  |  | 
C[C@@]1(O)CC[C@H]2[C@H](CC[C@@H]3[C@@H]2CC[C@]2(C)[C@@H](C(=O)Cn4cnn(-c5cccc(C(N)=O)c5)c4=O)CC[C@@H]32)C1 [S12] | less than 50% | 153 ± 33 | 764 ± 65 | 29 | 18 | 159 ± 20 | 386 ± 50 |  |  |  |  | 
COc1ccc(-n2ncn(CC(=O)[C@H]3CC[C@H]4[C@@H]5CC[C@@H]6C[C@](C)(O)CC[C@@H]6[C@H]5CC[C@]34C)c2=O)cn1 [S3] | less than 50% | 167 ± 37 | 389 ± 50 | 73 | 16 | 134 ± 32 | 474 ± 53 |  |  |  |  | 
C[C@@]1(O)CC[C@H]2[C@H](CC[C@@H]3[C@@H]2CC[C@]2(C)[C@@H](C(=O)Cn4c(=O)n(-c5ccccc5)c5ccccc54)CC[C@@H]32)C1 [S15] |  | 31 ± 12 | 305 ± 62 | 248 | 210 | 55 ± 15 | 470 ± 94 |  |  |  |  | 
C[C@@]1(O)CC[C@H]2[C@H](CC[C@@H]3[C@@H]2CC[C@]2(C)[C@@H](C(=O)Cn4cnn(-c5cc(F)cc(C#N)c5)c4=O)CC[C@@H]32)C1 [S13] |  | 72 ± 16 | 518 ± 87 | 40 | 90 | 37 ± 12 | 549 ± 101 |  |  |  |  | 
C[C@@]1(O)CC[C@H]2[C@H](CC[C@@H]3[C@@H]2CC[C@]2(C)[C@@H](C(=O)Cn4cnn(-c5cccnc5)c4=O)CC[C@@H]32)C1 [S5] |  | 373 ± 45 | 773 ± 87 | 24 | 11 | 61 ± 15 | 391 ± 64 |  |  |  |  | 
C[C@@]1(O)CC[C@H]2[C@H](CC[C@@H]3[C@@H]2CC[C@]2(C)[C@@H](C(=O)Cn4cnn(-c5cc(Cl)ccn5)c4=O)CC[C@@H]32)C1 [S7] |  | 109 ± 27 | 624 ± 29 | 69 | 21 | 72 ± 21 | 589 ± 63 |  |  | approximately 10% |  | 
COCCn1ncn(CC(=O)[C@H]2CC[C@H]3[C@@H]4CC[C@@H]5C[C@](C)(O)CC[C@@H]5[C@H]4CC[C@]23C)c1=O [S1] |  | 227 ± 52 | 735 ± 75 |  |  | 86 ± 25 | 609 ± 83 |  |  |  | 34 | 11
Cc1cc(-n2ncn(CC(=O)[C@H]3CC[C@H]4[C@@H]5CC[C@@H]6C[C@](C)(O)CC[C@@H]6[C@H]5CC[C@]34C)c2=O)cc(C)n1 [S4] | less than 50% | 171 ± 40 | 691 ± 72 |  |  | 41 ± 19 | 563 ± 85 |  |  |  |  | 
C[C@@]1(O)CC[C@H]2[C@H](CC[C@@H]3[C@@H]2CC[C@]2(C)[C@@H](C(=O)Cn4cnn(CCOC(F)(F)F)c4=O)CC[C@@H]32)C1 [S14] |  | 770 ± 104 | 576 ± 78 | 31 | 23 | 460 ± 59 | 889 ± 126 |  |  |  |  | 
